For test [1], the target named is T1, Prostaglandin G/H synthase 2 (Ovis aries) (UniProt P79208).
T1 sequence (whole entry): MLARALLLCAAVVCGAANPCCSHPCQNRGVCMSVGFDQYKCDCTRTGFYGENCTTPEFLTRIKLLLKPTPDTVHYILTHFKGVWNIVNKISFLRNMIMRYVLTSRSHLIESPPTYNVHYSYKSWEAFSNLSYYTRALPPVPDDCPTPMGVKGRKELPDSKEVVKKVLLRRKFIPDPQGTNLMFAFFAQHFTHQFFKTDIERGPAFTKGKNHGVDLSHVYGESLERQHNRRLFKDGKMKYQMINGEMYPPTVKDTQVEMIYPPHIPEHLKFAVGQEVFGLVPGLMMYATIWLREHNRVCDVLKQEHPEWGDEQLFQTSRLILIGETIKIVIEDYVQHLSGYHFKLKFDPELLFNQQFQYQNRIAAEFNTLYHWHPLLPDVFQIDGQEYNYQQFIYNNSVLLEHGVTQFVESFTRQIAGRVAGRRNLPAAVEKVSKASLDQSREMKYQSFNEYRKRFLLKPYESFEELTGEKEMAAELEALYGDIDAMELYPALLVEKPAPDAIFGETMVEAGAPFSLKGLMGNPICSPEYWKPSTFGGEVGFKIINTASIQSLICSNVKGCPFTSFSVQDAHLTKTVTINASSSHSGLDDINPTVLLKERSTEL
To be noted: 30 uM.
Description: Inhibition of ovine COX2 using arachidonic acid as substrate at 30 uM preincubated for 10 mins before substrate addition measured after 5 mins by EIA

Test [2] addresses T2, Prostaglandin G/H synthase 1 (Ovis aries) (UniProt P05979).
T2 sequence (whole entry): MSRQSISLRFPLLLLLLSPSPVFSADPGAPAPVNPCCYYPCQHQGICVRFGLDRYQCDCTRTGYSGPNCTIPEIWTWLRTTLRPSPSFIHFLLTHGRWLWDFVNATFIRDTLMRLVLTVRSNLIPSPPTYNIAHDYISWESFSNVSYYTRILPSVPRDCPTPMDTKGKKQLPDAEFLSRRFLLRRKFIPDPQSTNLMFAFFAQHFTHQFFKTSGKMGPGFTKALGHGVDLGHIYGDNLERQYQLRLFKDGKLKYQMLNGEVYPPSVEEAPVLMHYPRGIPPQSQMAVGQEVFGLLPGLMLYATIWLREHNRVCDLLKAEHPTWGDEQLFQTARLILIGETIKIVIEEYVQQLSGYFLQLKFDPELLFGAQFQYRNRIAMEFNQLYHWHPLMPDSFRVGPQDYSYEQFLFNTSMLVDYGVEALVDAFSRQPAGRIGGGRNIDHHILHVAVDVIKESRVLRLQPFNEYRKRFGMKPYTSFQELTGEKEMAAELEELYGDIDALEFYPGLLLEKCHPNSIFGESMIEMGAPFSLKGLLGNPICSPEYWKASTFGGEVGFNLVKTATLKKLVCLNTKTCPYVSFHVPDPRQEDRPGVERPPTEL
As to the kind of experiment: Inhibition of ovine COX1 using arachidonic acid as substrate at 30 uM preincubated for 10 mins before substrate addition measured after 5 mins by EIA.

Test [3] deals with Rattus norvegicus. As to the kind of experiment: Antiinflammatory activity in Sprague-Dawley rat assessed as inhibition of carrageenan-induced paw edema at 150 umol/kg, po administered 1 hr before carrageenan challenge measured after 3 hrs. In kind it is functional. (In general: In the carrageenan paw model, swelling and tenderness develop within hours.)
Test [4] has as its system Rattus norvegicus. The test is described as follows: Antiinflammatory activity in Sprague-Dawley rat assessed as inhibition of carrageenan-induced paw edema at 150 umol/kg, po administered 1 hr before carrageenan challenge measured after 5 hrs. In kind it is functional.
The target in test [5] is T3, Prostaglandin G/H synthase 1 (Ovis aries, UniProt P05979).
T3 sequence (P05979 whole entry): T2 sequence (whole entry)
As to the kind of experiment: Inhibition of ovine COX1 using arachidonic acid as substrate preincubated for 10 mins before substrate addition measured after 5 mins by EIA.

Molecules are shown by their SMILES.

As usually defined, the inhibition is the percentage by which the read-out fell short of the control. Low values mean a weak effect, high ones a strong effect. A word on the inhibition in vivo: it is the share of the control response that was lost under treatment. Broadly, the IC50 is the midpoint of a concentration-inhibition curve. Lower therefore signals higher potency.

As for `CC(=O)c1c(C)cc2cccc(O)c2c1OCc1ccccc1Br`, the inhibition in test [1] was 67.5%; in test [2] it was 37.2%.

As to `CC(=O)c1c(C)cc2cccc(OCc3cccc(Cl)c3)c2c1O`, the figures for the inhibition in vivo at 150 µmol/kg in the test with Rattus norvegicus [3] and in the test with Rattus norvegicus [4] were 26.6% and 37%, respectively. In addition, the results for the inhibition in test [1] and in test [2] were 82.1% and 67.1%, respectively. The IC50 in test [5] turned out to be 22.2 µM.

On to `CCCOc1c(C(C)=O)c(C)cc2cccc(O)c12`, for which the inhibition was 47% in test [1] and 51.4% in test [2].

For the compound `Cc1cc(OCc2ccccc2Br)c2c(c1)C(=O)c1cccc(OCc3ccccc3Br)c1C2=O`, the inhibition in test [1] turned out to be 62%; in test [2] it was 27.2%.

With `CCCOc1cccc2cc(C)c(C(C)=O)c(O)c12`, the figures for the inhibition in test [1] and in test [2] were 35.4% and 53.5%, respectively.

In the case of `CCOc1cccc2c1C(=O)c1c(OCC)cc(C)cc1C2=O`, the results for the inhibition in test [1] and in test [2] were 55.5% and 43.7%, respectively.

Regarding `CCCCOc1c(C(C)=O)c(C)cc2cccc(O)c12`, the values for the inhibition in test [1] and in test [2] were 37.9% and 40.2%, respectively.

For `CC(=O)c1c(C)cc2cccc(O)c2c1OC(C)C`, the inhibition was found to be 54.9% in test [1] and 62.2% in test [2].

In the case of `C=CCOc1cccc2c1C(=O)c1c(OCC=C)cc(C)cc1C2=O`, the inhibition in vivo at 150 µmol/kg in the test with Rattus norvegicus [3] turned out to be 35.6%; with Rattus norvegicus [4], 50.9%. Besides, the inhibition in test [1] was 81.5%; in test [2], 44.3%. For the same compound, the IC50 in test [5] was > 30 µM.

As for `CC(=O)c1c(C)cc2cccc(OCc3ccccc3)c2c1O`, the inhibition in vivo at 150 µmol/kg was 30.3% in the test with Rattus norvegicus [3] and 54.2% in the test on Rattus norvegicus [4]. Also, the inhibition in test [1] turned out to be 89.9%; in test [2] it was 83.4%. Further, in test [5], half-maximal inhibition (IC50) was put at 15.2 µM.

Take `CCCCOc1cccc2c1C(=O)c1c(OCCCC)cc(C)cc1C2=O`: the inhibition in test [1] was found to be 42%; in test [2], 26%.

Turning to `Cc1cc(OCc2ccccc2)c2c(c1)C(=O)c1cccc(OCc3ccccc3)c1C2=O`, the inhibition in vivo at 150 µmol/kg was determined as 28.2% with Rattus norvegicus [3] and 45.1% in the test on Rattus norvegicus [4]. Besides, the results for the inhibition in test [1] and in test [2] were 76.5% and 41.4%, respectively. Further, the IC50 in test [5] was > 30 µM.

Turning to `COCOc1c(C(C)=O)c(C)cc2cccc(O)c12`, the inhibition came out at 61.5% in test [1] and 67.1% in test [2].

As for `CCOc1c(C(C)=O)c(C)cc2cccc(O)c12`, the inhibition is 42.9% in test [1] and 58.4% in test [2].

`CC(=O)c1c(C)cc2cccc(O)c2c1OCc1ccccc1`: the inhibition is 68.2% in test [1] and 60.2% in test [2].

Turning to `CCCCOc1cccc2cc(C)c(C(C)=O)c(O)c12`, the inhibition in test [1] stood at 31.9%; in test [2], 28.5%.

As for `Cc1cc(OCc2cccc(Cl)c2)c2c(c1)C(=O)c1cccc(OCc3cccc(Cl)c3)c1C2=O`, the inhibition in test [1] turned out to be 61%; in test [2], 25.4%.

For the compound `COc1cccc2c1C(=O)c1c(OC)cc(C)cc1C2=O`, the inhibition in test [1] turned out to be 62.1%; in test [2] it was 59.2%.

For the compound `CC(=O)c1c(C)cc2cccc(O)c2c1O` [NEPODIN], the inhibition in test [1] came out at 59.4%; in test [2], 68.2%. The same compound came in with an IC50 in test [5] of 27.4 µM.

Consider `CCOc1cccc2cc(C)c(C(C)=O)c(O)c12`, for which the inhibition in test [1] was found to be 54.2%; in test [2] it was 62.1%.

In the case of `CC(=O)c1c(C)cc2cccc(OCc3ccccc3Br)c2c1O`, the inhibition in vivo at 150 µmol/kg in the test with Rattus norvegicus [3] turned out to be 25.5%; with Rattus norvegicus [4], 46.5%. The inhibition in test [1] is 83.1%; in test [2], 63.6%. In test [5], the half-maximal inhibitory concentration (IC50) was determined as 24.5 µM.

With `CC(C)Cc1ccc(C(C)C(=O)O)cc1` (stereo not drawn) [IBUPROFEN], the values for the inhibition in vivo at 150 µmol/kg with Rattus norvegicus [3] and in the test on Rattus norvegicus [4] were 32.3% and 43.5%, respectively.

As to `CC(=O)c1c(C)cc2cccc(O)c2c1OCc1cccc(Cl)c1`, the figures for the inhibition in test [1] and in test [2] were 64.9% and 34.9%, respectively.

Take `COc1c(C(C)=O)c(C)cc2cccc(O)c12`: the values for the inhibition in test [1] and in test [2] were 55.5% and 65.5%, respectively.

In the case of `COc1cccc2cc(C)c(C(C)=O)c(O)c12`, the results for the inhibition in test [1] and in test [2] were 61.7% and 69.8%, respectively.

Regarding `CCCOc1cccc2c1C(=O)c1c(OCCC)cc(C)cc1C2=O`, the inhibition in test [1] amounted to 58.7%; in test [2] it was 39.6%.

With `Cc1cc(O)c2c(c1)C(=O)c1cccc(O)c1C2=O` [CHRYSOPHANOL], the inhibition in test [1] came out at 42.1%; in test [2] it was 29.4%. Also, the IC50 in test [5] was found to be 46.2 µM.

With `CC(=O)c1c(C)cc2cccc(OC(C)C)c2c1O`, the inhibition is 62.6% in test [1] and 70.9% in test [2].

As for `Cc1cc(OCc2ccc(I)cc2)c2c(c1)C(=O)c1cccc(OCc3ccc(I)cc3)c1C2=O`, the values for the inhibition in vivo at 150 µmol/kg in the test on Rattus norvegicus [3] and in the test with Rattus norvegicus [4] were 36.1% and 54.6%, respectively. For the same compound, the inhibition amounted to 77.8% in test [1] and 64.2% in test [2]. In test [5], the IC50 was > 30 µM.

Consider `COCOc1cccc2cc(C)c(C(C)=O)c(O)c12`, for which the inhibition in vivo at 150 µmol/kg was 36.4% with Rattus norvegicus [3] and 55.8% in the test with Rattus norvegicus [4]. The inhibition was 75% in test [1] and 80.6% in test [2]. In test [5], this compound yielded an IC50 of 17.2 µM.

For the origin of these results see ChEMBL document CHEMBL3259581 (Eur J Med Chem, 2014).
